Values joined by “and” are separate entries in the source; they are usually repeats but may differ in a detail not shown here. Equal values may be shown once. Read-outs that look alike come from different tables or passages of the source.
Experiments:
OAT4 = target: T1, OAT4 (Homo sapiens, UniProt Q9NSA0); experiment: [14C]-urate uptake by OAT4-expressing Xenopus oocytes; type: cell-based; conditions: for Inhibition of OAT4-mediated urate uptake: drug 100 μmol/L
T1 sequence (Q9NSA0 1-550): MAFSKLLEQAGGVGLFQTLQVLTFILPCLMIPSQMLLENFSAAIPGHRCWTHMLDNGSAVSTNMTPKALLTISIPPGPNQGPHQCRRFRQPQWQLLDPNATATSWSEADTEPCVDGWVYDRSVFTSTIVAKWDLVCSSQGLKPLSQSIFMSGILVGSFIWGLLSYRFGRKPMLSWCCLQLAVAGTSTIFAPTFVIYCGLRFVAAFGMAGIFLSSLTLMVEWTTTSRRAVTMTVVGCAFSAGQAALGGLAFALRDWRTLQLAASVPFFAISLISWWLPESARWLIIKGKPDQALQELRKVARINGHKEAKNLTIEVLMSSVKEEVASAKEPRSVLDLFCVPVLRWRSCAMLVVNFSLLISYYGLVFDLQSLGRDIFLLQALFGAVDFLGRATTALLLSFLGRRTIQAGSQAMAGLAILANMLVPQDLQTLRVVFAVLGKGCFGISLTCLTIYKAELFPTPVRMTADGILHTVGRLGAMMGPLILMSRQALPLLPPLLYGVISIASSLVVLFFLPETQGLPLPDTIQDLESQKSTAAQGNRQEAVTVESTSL
Description: (§1) For uptake experiments, oocytes were washed four times with ND96 medium (pH 7.4) without pyruvate and gentamycin.
(A) The uptake of [^14C]‐urate by OAT4‐expressing oocytes was performed in ND96 medium (pH 7.4) at ~25°C for 1 h. Na^+‐dependence was examined by replacing extracellular NaCl by KCl. […] (B) The inhibition of [^14C]‐urate uptake by OAT4 was examined in the presence of extracellular organic anions (for cis‐inhibition) or uricosuric drugs at the indicated concentrations. […] Data are mean ± S.E. with n = 12–15.

URAT1 = target: T2, URAT1 (Homo sapiens, UniProt Q96S37); experiment: [14C]-urate uptake by URAT1-expressing Xenopus oocytes; type: cell-based; conditions: for IC50: 40 μmol/L urate
T2 sequence (Q96S37 1-553): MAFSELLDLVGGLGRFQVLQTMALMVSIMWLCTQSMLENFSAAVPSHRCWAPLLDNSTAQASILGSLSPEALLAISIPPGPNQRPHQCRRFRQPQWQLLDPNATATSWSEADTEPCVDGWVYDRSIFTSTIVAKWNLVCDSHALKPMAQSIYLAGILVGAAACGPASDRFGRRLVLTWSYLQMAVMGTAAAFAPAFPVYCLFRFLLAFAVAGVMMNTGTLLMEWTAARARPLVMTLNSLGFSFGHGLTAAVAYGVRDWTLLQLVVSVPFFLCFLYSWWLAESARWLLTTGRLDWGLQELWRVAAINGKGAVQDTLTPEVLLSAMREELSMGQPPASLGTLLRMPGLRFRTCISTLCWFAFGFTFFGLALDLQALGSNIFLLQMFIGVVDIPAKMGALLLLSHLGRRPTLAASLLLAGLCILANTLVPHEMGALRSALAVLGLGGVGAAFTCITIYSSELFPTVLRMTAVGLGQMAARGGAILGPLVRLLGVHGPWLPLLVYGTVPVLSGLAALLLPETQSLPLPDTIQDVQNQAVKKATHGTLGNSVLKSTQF
Text: as §1

ABCG2 = target: T3, ABCG2 (Homo sapiens, UniProt Q9UNQ0); experiment: [14C]-urate efflux from ABCG2-expressing Xenopus oocytes
T3 sequence (Q9UNQ0 1-655): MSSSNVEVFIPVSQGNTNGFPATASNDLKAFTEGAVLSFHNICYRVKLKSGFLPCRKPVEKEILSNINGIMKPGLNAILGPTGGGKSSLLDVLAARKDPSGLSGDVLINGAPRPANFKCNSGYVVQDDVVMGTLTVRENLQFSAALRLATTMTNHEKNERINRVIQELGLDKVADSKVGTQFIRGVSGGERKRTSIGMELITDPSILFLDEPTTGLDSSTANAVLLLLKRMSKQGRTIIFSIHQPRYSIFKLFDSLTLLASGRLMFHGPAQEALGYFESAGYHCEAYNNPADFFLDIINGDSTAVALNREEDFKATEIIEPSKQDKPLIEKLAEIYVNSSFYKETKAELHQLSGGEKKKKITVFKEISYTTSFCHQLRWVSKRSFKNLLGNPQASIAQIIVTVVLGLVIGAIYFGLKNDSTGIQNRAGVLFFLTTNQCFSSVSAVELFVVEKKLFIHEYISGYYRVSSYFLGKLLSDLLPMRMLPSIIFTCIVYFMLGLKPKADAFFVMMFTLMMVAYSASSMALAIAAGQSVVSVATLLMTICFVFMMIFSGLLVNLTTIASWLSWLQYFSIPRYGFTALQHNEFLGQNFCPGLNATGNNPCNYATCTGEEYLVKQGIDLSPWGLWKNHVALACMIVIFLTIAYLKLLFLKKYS
Description: In brief, a small incision was made in the abdomen and a lobe of ovary was removed. […] Oocytes were then defolliculated by treatment with 3.5 mg/mL collagenase A (Roche, Indianapolis, IN) in Ca^2+‐free ND96 medium for 60–70 min with gentle agitation at room temperature (25°C).
The indicated full‐length cDNAs were subcloned into the pGEMHE oocyte expression plasmid, 3′ of a T7 promoter and flanked by Xenopus laevis‐specific 5′‐ and 3′‐UTRs. Plasmid DNA was linearized at the 3′‐end of cDNAs by Not1, Nhe1, or EcoR1 digestion, and cRNA was in vitro transcribed by using T7 RNA polymerase (mMESSAGE mMACHINE; Ambion, Austin, TX) following the suppliers protocol. Isopropanol‐precipitated, in vitro transcribed capped cRNA was washed with 70% ethanol, dried and then dissolved in sterile nuclease‐free water. The yield and RNA integrity of the capped cRNA samples were assessed by spectroscopy (at 260 nm) and 1% agarose‐formaldehyde gel electrophoresis, respectively. All cRNA samples were stored frozen in aliquots at −80°C until used. About 18 h after isolation, oocytes were injected with 50 nL of sterile water, 50 mmol/L tris pH 7.4, or 50 nL of a cRNA solution in 50 mmol/L tris buffer (pH 7.4) containing 25 ng of the indicated cRNA using fine‐tipped micropipettes by a microinjector (World Precision Instrument Inc. Sarasota, FL).
Preinjected oocytes were then incubated in ND96 medium for 1 h at 16°C for recovery. After incubation, the oocytes were washed in cold ND96 medium four times to remove any external adhering [^14C]‐urate from the oocytes and then subjected to efflux for 1 h at room temperature (~25°C) in ND96 medium (pH 7.4) in the absence or presence of drug.
Radioisotope content of each individual oocyte was measured by scintillation counter after solubilization in 0.3 mL of 10% (v/v) SDS and addition of 2.5 mL of scintillation fluid. […] Statistical analyses including linear regressions were done using SigmaPlot software.
We investigated the effect of tranilast (added in the efflux assay medium) on the [^14C]‐urate efflux activity of ABCG2 expressed in Xenopus laevis oocytes. […]

OAT3 = target: T4, OAT3 (Mus musculus, UniProt O88909); experiment: [14C]-urate uptake by OAT3-expressing Xenopus oocytes; type: cell-based
T4 sequence (O88909 1-537): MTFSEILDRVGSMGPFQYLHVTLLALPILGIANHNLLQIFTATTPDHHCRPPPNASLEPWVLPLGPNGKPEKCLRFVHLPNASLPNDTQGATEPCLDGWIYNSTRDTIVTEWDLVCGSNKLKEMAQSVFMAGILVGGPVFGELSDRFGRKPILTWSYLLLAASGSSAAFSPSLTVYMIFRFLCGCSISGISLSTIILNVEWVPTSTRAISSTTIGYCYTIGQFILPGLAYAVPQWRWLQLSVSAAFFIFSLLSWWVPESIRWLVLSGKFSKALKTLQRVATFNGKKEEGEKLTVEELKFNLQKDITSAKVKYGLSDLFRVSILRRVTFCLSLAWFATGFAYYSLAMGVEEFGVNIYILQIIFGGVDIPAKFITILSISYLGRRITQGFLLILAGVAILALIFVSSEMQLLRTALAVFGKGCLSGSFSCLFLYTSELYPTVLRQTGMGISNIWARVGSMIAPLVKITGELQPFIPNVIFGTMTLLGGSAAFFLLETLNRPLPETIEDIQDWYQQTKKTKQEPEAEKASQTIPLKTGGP
Description: as §1
The uptake of [^14C]‐urate (40 μmol/L) was performed in ND96 medium (pH 7.4) at ~25°C for 1 h.

[1] = human, Xenopus laevis oocytes expressing ABCG2, pH 7.4, probe [14C]-urate

SMILES	IC50 (OAT4; data not shown) [µM]	Inhibition of OAT4-mediated urate uptake (OAT4)	URAT1 urate transport inhibition after washing and removal of inhibitor (URAT1)	Vmax of URAT1-mediated urate uptake (URAT1)	mode of inhibition of URAT1-mediated urate transport (URAT1)	Ki (URAT1; Eadie-Hofstee analysis, read-out: inhibition constant (Ki) for URAT1-mediated urate uptake) [µM]	IC50 (URAT1; IC50, URAT1-mediated [14C]-urate/PZA or [14C]-urate/nicotinate exchange, oocytes preloaded with nicotinate (Fig. 1E), 1 h)	IC50 (URAT1; uptake in the absence of PZA or nicotinate preloading, data not shown, read-out: IC50, basal URAT1-mediated [14C]-urate uptake) [µM]	Effect on ABCG2-mediated urate efflux (ABCG2; drug 100 μmol/L, efflux 1 h)	IC50 (OAT3; data not shown, read-out: IC50, OAT3-mediated urate uptake) [µM]	Inhibition of OAT3-mediated urate uptake (OAT3; drug 50 μmol/L)	inhibition at 1000 µM (OAT4; read-out: Inhibition of OAT4-mediated urate uptake) [%]	Inhibition of URAT1-mediated [14C]-urate/PZA or /nicotinate exchange (URAT1)	Reversibility of URAT1 inhibition (URAT1)	inhibition at 1 h, 1 mmol/L (ABCG2; [1]) [%]	Inhibition of OAT3-mediated urate uptake (OAT3; drug 1.0 mmol/L)	inhibition at 1 h, 100 μmol/L (ABCG2; [1]) [%]	Inhibition of OAT3-mediated urate uptake (OAT3; drug 100 μmol/L)
COc1ccc(C=CC(=O)Nc2ccccc2C(=O)O)cc1OC [tranilast, N‐(3,4‐dimethoxycinnamoyl) anthranilic acid]	~22	very efficiently inhibited	almost no inhibition	120.1 pmoles/oocyte/h and 63.5 pmoles/oocyte/h	noncompetitive inhibition (mixed)	21.3 ± 2.2	21 µM and ~21 µM	~20	remained unaffected	~15	effectively inhibited	–	–	–	–	–	–	–
CCCN(CCC)S(=O)(=O)c1ccc(C(=O)O)cc1 [probenecid]	–	–	–	–	–	–	–	–	–	–	–	80	efficiently inhibited	not reversible	~20	effectively inhibited	–	–
CCc1oc2ccccc2c1C(=O)c1cc(Br)c(O)c(Br)c1 [benzbromarone]	–	very efficiently inhibited	substantially inhibited	–	–	–	–	–	–	–	–	–	efficiently inhibited	not reversible	–	–	~48	effectively inhibited

— publication PMC5368959, “Uricosuric targets of tranilast” (Pharmacology Research & Perspectives, 2017)
